US6211154A, “Ketoheterocyclic inhibitors of factor Xa” (COR Therapeutics, Inc., priority 1995, dated 2001)

Test: Coagulation parameters (aPTT, PT) in blood samples of the rabbit venous thrombosis model
Format: in vivo
Conditions: steady state, mean±SD
Description: All measurements are an average of all samples after steady state administration of vehicle or (D)--Arg--G|y--Arg--thiazole. Values are expressed as mean±SD.

Structure (SMILES): NC(N)=NCCCC(N)C(=O)NCC(=O)NC(CCCN=C(N)N)C(=O)c1nccs1 [H-D-Arg-Gly-Arg-thiazole, H--(D)--Arg--Gly--Arg--Thiazole]
- PT fold increase over baseline (50 μg/kg + 1.28 μg/kg/min): 1.00 ± 0.00 fold
- PT fold increase over baseline (75 μg/kg + 1.93 μg/kg/min): 1.00 ± 0.00 fold
- PT fold increase over baseline (100 μg/kg + 2.57 μg/kg/min): 0.83 ± 0.00 fold
